The results in this text go back to ChEMBL document CHEMBL1145498, “A systematic interaction map of validated kinase inhibitors with Ser/Thr kinases” (Proc Natl Acad Sci U S A, 2007).

The structures appear in SMILES notation.

The target of test [1] is Calcium/calmodulin-dependent protein kinase type II subunit gamma (Homo sapiens) (UniProt Q13555).
The target in test [2] is Serine/threonine-protein kinase 10 (Homo sapiens) (UniProt O94804).
The target in test [3] is Dual specificity protein kinase CLK3 (Homo sapiens) (UniProt P49761).
Dual specificity protein kinase CLK3 (Homo sapiens), sequence (P49761 whole entry, looked up): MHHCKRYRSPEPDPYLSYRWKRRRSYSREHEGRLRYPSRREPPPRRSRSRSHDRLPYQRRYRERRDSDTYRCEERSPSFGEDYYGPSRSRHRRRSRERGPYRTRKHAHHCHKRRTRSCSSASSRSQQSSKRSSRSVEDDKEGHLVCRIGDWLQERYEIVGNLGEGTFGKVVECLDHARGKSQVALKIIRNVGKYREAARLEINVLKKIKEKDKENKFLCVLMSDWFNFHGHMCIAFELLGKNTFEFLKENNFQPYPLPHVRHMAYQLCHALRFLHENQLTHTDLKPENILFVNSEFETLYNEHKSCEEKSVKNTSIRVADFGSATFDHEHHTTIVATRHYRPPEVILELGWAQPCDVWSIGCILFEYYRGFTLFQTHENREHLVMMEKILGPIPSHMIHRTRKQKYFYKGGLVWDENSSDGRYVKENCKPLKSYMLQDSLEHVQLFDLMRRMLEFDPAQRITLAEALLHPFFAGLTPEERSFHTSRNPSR
Test [4] deals with Dual specificity protein kinase CLK1 (Homo sapiens) (UniProt P49759).
Dual specificity protein kinase CLK1 (Homo sapiens), sequence (P49759 whole entry, looked up): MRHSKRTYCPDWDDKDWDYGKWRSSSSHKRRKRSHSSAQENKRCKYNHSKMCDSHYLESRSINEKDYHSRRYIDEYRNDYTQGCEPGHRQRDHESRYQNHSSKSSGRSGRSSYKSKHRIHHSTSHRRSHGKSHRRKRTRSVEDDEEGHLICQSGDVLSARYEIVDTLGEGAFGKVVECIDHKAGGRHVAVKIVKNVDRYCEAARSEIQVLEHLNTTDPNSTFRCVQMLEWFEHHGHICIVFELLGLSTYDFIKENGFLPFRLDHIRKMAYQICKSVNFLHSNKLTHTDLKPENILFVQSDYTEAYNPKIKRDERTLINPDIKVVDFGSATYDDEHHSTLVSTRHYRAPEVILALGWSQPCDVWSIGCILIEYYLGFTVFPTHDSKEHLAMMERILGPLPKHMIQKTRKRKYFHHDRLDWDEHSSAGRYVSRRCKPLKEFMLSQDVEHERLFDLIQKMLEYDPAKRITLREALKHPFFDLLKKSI
The target of test [5] is T1, Myotonin-protein kinase (Homo sapiens) (UniProt Q09013).
T1 sequence (whole entry): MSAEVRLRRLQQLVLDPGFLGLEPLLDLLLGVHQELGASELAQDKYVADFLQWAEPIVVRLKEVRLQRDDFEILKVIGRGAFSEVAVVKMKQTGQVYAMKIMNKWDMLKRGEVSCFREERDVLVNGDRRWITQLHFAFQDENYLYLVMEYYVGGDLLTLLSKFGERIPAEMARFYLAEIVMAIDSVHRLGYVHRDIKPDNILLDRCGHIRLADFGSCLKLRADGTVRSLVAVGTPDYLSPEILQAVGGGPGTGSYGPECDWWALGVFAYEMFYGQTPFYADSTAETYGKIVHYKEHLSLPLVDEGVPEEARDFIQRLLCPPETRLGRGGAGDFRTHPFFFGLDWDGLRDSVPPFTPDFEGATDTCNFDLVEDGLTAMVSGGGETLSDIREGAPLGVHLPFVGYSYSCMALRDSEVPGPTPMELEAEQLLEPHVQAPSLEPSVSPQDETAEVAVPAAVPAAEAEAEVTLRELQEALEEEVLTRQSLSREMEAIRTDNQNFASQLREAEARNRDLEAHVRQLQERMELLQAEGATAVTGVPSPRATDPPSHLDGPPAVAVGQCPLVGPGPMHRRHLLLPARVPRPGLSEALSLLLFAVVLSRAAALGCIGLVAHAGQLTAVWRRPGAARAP

For test [6], the target named is T2, Serine/threonine-protein kinase 4 (Homo sapiens) (UniProt Q13043).
T2 sequence (whole entry): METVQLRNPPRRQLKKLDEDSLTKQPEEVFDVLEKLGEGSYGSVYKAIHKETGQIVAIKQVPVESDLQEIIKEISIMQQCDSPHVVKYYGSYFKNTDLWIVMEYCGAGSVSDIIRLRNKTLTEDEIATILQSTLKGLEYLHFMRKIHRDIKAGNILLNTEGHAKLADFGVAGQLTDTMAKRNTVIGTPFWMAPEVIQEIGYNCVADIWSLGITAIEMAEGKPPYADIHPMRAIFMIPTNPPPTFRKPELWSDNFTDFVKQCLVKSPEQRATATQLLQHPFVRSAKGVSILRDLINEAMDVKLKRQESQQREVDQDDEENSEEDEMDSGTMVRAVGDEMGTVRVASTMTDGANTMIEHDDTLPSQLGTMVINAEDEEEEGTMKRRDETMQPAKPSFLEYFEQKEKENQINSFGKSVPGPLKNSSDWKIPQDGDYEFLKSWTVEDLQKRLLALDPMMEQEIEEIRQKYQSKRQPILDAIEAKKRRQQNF

Calcium/calmodulin-dependent protein kinase type II subunit gamma (Homo sapiens), sequence (Q13555 whole entry): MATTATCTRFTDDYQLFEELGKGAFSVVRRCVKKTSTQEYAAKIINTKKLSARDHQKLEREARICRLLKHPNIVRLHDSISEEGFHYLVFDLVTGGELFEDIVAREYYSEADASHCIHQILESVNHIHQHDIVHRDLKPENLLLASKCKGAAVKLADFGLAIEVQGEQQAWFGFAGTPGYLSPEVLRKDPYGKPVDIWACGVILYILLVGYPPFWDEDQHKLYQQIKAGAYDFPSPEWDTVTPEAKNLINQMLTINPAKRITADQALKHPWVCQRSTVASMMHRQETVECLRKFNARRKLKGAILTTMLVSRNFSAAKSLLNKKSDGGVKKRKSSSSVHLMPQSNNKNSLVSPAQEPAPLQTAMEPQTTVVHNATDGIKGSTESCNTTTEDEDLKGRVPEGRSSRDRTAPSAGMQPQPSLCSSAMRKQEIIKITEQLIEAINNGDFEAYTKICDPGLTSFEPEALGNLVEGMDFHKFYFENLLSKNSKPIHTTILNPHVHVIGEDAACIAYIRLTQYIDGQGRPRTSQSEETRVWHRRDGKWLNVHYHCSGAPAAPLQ
Serine/threonine-protein kinase 10 (Homo sapiens), sequence (O94804 whole entry, looked up): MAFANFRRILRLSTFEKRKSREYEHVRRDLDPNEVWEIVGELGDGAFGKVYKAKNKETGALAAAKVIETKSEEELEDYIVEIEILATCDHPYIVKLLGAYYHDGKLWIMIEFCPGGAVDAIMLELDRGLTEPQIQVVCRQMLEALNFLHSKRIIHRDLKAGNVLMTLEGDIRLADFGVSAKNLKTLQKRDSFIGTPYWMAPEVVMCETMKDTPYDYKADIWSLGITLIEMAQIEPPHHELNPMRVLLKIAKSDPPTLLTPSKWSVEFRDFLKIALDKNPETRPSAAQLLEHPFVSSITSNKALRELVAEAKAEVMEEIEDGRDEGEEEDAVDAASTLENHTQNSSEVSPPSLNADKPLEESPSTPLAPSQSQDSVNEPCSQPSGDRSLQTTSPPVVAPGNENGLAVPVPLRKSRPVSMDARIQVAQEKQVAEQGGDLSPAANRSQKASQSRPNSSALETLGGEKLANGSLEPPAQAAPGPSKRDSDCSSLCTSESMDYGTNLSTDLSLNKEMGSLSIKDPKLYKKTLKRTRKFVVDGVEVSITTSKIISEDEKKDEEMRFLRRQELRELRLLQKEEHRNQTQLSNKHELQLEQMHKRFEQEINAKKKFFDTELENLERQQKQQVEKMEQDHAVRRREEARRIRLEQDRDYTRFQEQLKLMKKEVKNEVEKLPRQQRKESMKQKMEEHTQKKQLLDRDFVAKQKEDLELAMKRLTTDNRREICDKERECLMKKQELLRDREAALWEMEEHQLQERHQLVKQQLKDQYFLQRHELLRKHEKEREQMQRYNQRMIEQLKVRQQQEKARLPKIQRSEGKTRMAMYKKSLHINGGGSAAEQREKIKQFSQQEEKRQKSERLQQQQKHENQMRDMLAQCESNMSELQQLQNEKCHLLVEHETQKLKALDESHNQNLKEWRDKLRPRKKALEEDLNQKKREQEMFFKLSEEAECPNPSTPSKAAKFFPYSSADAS

As for `O=c1cc(N2CCOCC2)oc2c1ccc1ccccc12`, the ΔTm in test [1] is 0.2 °C; in test [2] it was 0.4 °C; in test [3] it was 0.1 °C; in test [4], 0.8 °C; in test [5] it was 0.2 °C; in test [6] it was 0.2 °C.

On to `CN(C)C[C@@H]1CCn2cc(c3ccccc32)C2=C(C(=O)NC2=O)c2cn(c3ccccc23)CCO1` [RUBOXISTAURIN], for which the ΔTm came out at 1.6 °C in test [1]; 7.2 °C in test [2]; 0.3 °C in test [3]; 5.4 °C in test [4]; 5.3 °C in test [5]; 0.6 °C in test [6].

Take `O=C(Nc1cccc(Nc2cc(Nc3cccc(C(F)(F)F)c3)ncn2)c1)C1CC1`: the thermal shift (ΔTm) in test [1] is -2 °C; in test [2] it was 0 °C; in test [3] it was 1.5 °C; in test [4], 1.9 °C; in test [5], 4 °C; in test [6] it was 1.4 °C.

As to `CCOc1ccc(/C=C2/SC(=O)N(CCN)C2=O)cc1` [HIAZOLIDINEDIONE1], the shift in melting temperature (ΔTm) in test [1] came to 0 °C; in test [2], 0.8 °C; in test [3], 0.1 °C; in test [4], 0.9 °C; in test [5] it was 1.4 °C; in test [6], 0.4 °C.

On to `O=C1Nc2ccccc2/C1=C/c1cnc[nH]1`, for which the ΔTm amounted to 1.2 °C in test [1]; 4.2 °C in test [2]; 1 °C in test [3]; 3.3 °C in test [4]; 0.8 °C in test [5]; 8.4 °C in test [6].

Turning to `COc1ccc(S(=O)(=O)N(CCO)c2ccccc2CN(C)C/C=C/c2ccc(Cl)cc2)cc1`, the ΔTm was -0.6 °C in test [1]; 0.2 °C in test [2]; -0.3 °C in test [3]; 0.1 °C in test [4]; -0.7 °C in test [5]; -0.2 °C in test [6].

Consider `O=c1c(O)c(-c2ccc(O)c(O)c2)oc2cc(O)cc(O)c12` [QUERCETIN], for which the ΔTm in test [1] was 4.9 °C; in test [2], 5.5 °C; in test [3] it was 5.4 °C; in test [4] it was 7.7 °C; in test [5], 3 °C; in test [6], 5.4 °C.

On to `CN(C)c1ncnc2nc[nH]c12` [DIMETHYLADENINE], for which the ΔTm in test [1] was 0 °C; in test [2] it was -0.4 °C; in test [3] it was 0.4 °C; in test [4], 1.3 °C; in test [5], 0.8 °C; in test [6], 1.1 °C.

In the case of `Cc1cc(Nc2nc(-c3ccccc3)nc3ccccc23)n[nH]1`, the ΔTm in test [1] is 1.9 °C; in test [2], 11.1 °C; in test [3] it was 3.5 °C; in test [4], 5.8 °C; in test [5], 1.9 °C; in test [6] it was 7.4 °C.

As to `Cc1ccc(NC(=O)c2cccc(N(C)C)c2)cc1NC(=O)c1ccc(O)cc1`, the ΔTm in test [1] is 0.1 °C; in test [2], 0.1 °C; in test [3] it was 0 °C; in test [4], -0.2 °C; in test [5] it was -0.8 °C; in test [6] it was 0 °C.

In the case of `Brc1c(Br)c(Br)c2[nH]nnc2c1Br` [TETRABROMOBENZOTRIAZOLE], the ΔTm in test [1] stood at 0.6 °C; in test [2] it was 0 °C; in test [3], 2 °C; in test [4], 3.6 °C; in test [5] it was 1.1 °C; in test [6] it was 3.3 °C.

As to `Cc1[nH]c(/C=C2\C(=O)Nc3ccc(S(=O)(=O)N(C)c4cccc(Cl)c4)cc32)c(C)c1C(=O)N1CCN(C)CC1`, the ΔTm was determined as 0.6 °C in test [1]; 1.8 °C in test [2]; 3.7 °C in test [3]; 2.1 °C in test [4]; 2.2 °C in test [5]; 0.1 °C in test [6].

Consider `COc1cc(C[C@H]2C(=O)OC[C@@H]2Cc2ccc(OC)c(OC)c2)ccc1O` [ARCTIGENIN], for which the ΔTm in test [1] is 0.3 °C; in test [2], 0.7 °C; in test [3] it was 0 °C; in test [4], -1 °C; in test [5], 1.4 °C; in test [6], 0.8 °C.
